Patent US10759799B2, “Indazole containing macrocycles and therapeutic uses thereof” (Samumed, LLC, priority 2018, dated 2020)

Columns and labels:
[1] = biological target: recombinant GSK3β kinase (Homo sapiens (Human), UniProt P49841); test: GSK3β kinase assay (Ser/Thr 09 peptide Z-lyte, FRET); format: biochemical; conditions: 46 μM ATP, one hour at room temperature, read-out: EC50 (μM) (IC50 per method)
Text: Representative compounds were screened using the assay procedure for GSK3β kinase activity as described below.
The GSK3β kinase assay is run using the Ser/Thr 09 peptide Z-lyte assay kit according to manufacturer's instructions (Life Technologies—a Division of Thermo-Fisher). This is a non-radioactive assay using fluorescence resonance energy transfer (FRET) between coumarin and fluorescein to detect kinase activity which is represented as ratio of coumarin emission/fluorescein emission.
Briefly, recombinant GSK3β kinase, ATP and Ser/Thr peptide 09 are prepared in 1× Kinase buffer to final concentrations of 0.04 μg/mL, 46 μM, and 4 μM respectively. The mixture is allowed to incubate with the representative compounds for one hour at room temperature. All reactions were performed in duplicate. Unphosphorylated (“0% Control”) and phosphorylated (“100% control”) forms of […] serve as control reactions.
After incubation, diluted Development Buffer is added to the reaction and allowed to further incubate for one hour at room temperature. The plate is read at Ex 400 Em 455 to detect the coumarin signal and Ex 400 Em 520 to measure the signal (EnVision Multilabel Plate Reader, PerkinElmer).
The Emission ratio (Em) is calculated as a ratio of the coumarin (C) emission signal (at 445 nm)/Fluorescein (F) emission signal (at 520 nm). The percent phosphorylation is then calculated using the following formula: [1−((Em ratio×F100%)−C100%)/((C0%−C100%)+(Em ratio×(F100%−F0%)))].
Dose-response curves are generated and inhibitory concentration (IC50) values are calculated using non-linear regression curve fit in the Dotmatics' Studies Software (Bishops Stortford, UK).

[2] = system: SW480 colon carcinoma cells; test: Cell viability assay (CellTiter-Glo) in SW480 cells; format: cell-based; conditions: Homo sapiens; for EC50: 96 h, SW480 cell viability, four days, CellTiter-Glo; for inhibition at 10 µM: SW480, read-out: percent inhibition at 10 μM
Description: Representative compounds were screened using the assay procedure to assess the effect on cell viability as described below.
SW480 colon carcinoma cells were transduced with a lentiviral vector expressing luciferase with a human Sp5 promoter consisting of a sequence of eight TCF/LEF binding sites. SW480 cells stably expressing the Sp5-Luc reporter gene and a hygromycin resistance gene were selected by treatment with 150 μg/mL of hygromycin for 7 days. These stably transduced SW480 cells were expanded in cell culture and used for all further screening activities.
For the Cell Viability Assays, the cells were plated at 2,000 cells/well in 384-well plates with a DMEM medium containing 1% fetal bovine serum, and 1% Penicillin-Streptomycin and incubated for […] at 37° C. and 5% CO2. Eight replicates of DMSO-treated cells served as controls and cells treated with compound were performed in duplicate.
After incubation, 10 μL of CellTiter-Glo (Promega) was added to each well allowed to incubate for approximately 12 minutes. This reagent “results in cell lysis and generation of a luminescent signal proportional to the amount of ATP present. The amount of ATP is directly proportional to the number of cells present in culture, in agreement with previous reports. The CellTiter-Glo Assay generates a “glow-type” luminescent signal, produced by the luciferase reaction (Promega.com)”.

[3] = system: primary human fibroblasts derived from IPF patients (LL29 cells); test: Inhibition of TGF-β1 induced fibrosis (αSMA staining) in LL29 fibroblasts; format: cell-based; conditions: Fibroblast; for EC50: 96 h, LL29 cells, TGF-β1 20 ng/mL, 4 days, % αSMA positive cells
Description: Representative compounds were screened using primary human fibroblasts (derived from IPF patients) treated with TGF-β1 to determine their ability to inhibit the fibrotic process.
LL29 cells were plated at 1,500 cells/well in 70 μL/well F12 medium supplemented with 1% Fetal Bovine Serum. […] Wells treated with TGF-β1 and containing DMSO were used as positive control, and cells with only DMSO were negative control. […] Following incubation for 4 days, SYTOX green nucleic acid stain (Life Technologies [Thermo Fisher Scientific]) was added to the wells at a final concentration of 1 μM and incubated at room temperature for 30 min.

[4] = system: primary human mesenchymal stem cells (hMSCs); test: Chondrogenesis induction in hMSCs (Rhodamine B staining intensity, EC50); format: cell-based; conditions: 6 days, Rhodamine B staining intensity of nodules
Text: Representative compounds were screened using primary human mesenchymal stem cells (hMSCs) to determine their ability to induce chondrogenesis (process by which cartilage is developed).
Primary human mesenchymal stem cells (hMSCs) were purchased from Lonza (Walkersville, Md.) and expanded in Mesenchymal Stem Cell Growth Media (Lonza). Cells between passage 2 and 4 were used for the experiments.
To image chondrogenic nodules, the cells were fixed using 4% formaldehyde (Electron Microscopy Sciences), and stained with 2 μg/mL Rhodamine B (Sigma-Aldrich) and 20 μM Nile Red (Sigma-Aldrich) [Johnson K., et. al, A Stem Cell-Based Approach to Cartilage Repair, Science, (2012), 336(6082). […] Rhodamine B staining intensity of nodules in each well was normalized to the average of 3 DMSO treated wells on the same plate using Excel (Microsoft Inc.). The normalized averages (fold change over DMSO) of 3 replicate wells for each compound concentration were calculated. EC50 values were calculated using non-linear regression curve fitting in Prism 8 (Graphpad Inc.). Due to solubility limitations of some of the compounds, curve fitting was incomplete, and the highest observed activity was extrapolated to the insoluble doses for accurate EC50 determinations.
EC50 values are reported. Further, using TGF-β3 as a positive control, the concentration of representative compounds required to induce equivalent levels of chondrogenesis is reported. In addition, the maximum activity of each compound and the respective dose that each compound reached maximum chondrogenesis activity is reported.

Chain of recombinant GSK3β kinase (P49841 whole entry): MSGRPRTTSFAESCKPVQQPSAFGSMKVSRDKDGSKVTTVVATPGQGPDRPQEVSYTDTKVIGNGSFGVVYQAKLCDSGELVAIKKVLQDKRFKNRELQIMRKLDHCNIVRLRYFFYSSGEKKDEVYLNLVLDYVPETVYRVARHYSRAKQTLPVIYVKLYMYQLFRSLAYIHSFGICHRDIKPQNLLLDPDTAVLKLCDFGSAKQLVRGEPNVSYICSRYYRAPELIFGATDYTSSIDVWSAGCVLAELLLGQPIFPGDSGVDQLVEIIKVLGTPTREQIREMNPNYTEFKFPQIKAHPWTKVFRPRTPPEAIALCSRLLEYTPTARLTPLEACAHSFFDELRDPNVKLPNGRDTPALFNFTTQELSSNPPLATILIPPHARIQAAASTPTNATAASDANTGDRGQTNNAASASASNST

| SMILES | IC50 [1] | EC50 [2] | EC50 [4] | EC50 [3] | inhibition at 10 µM [2] | inhibition at 10 µM ([3]; read-out: percent inhibition at 10 μM) |
| --- | --- | --- | --- | --- | --- | --- |
| Cn1ncc2c1CNCc1cccc(c1)-c1cccc3[nH]c(nc13)-c1n[nH]c3ccc-2cc13 [Compound 15, (Z)-Methyl-1^1H,2^1H,3^1H-6-aza-2(5,3),3 (2,4)-diindazola-1 (4,5)-pyrazola-4(1,3)-benzenacycloheptaphane] | 0.01 µM | 118 nM | 51 nM | 87 nM | – | – |
| O=C1CCc2cccc(c2)-c2cccc3[nH]c(nc23)-c2n[nH]c3ccc(nc23)-c2cncc(c2)N1 [Compound 7, (Z)-2^1H,3^1H-8-Aza-2(5,3)-pyrazolo[4,3-b]pyridina-3 (2,4)-benzo[d]imidazola-1(3,5)-pyridina-4(1,3)-benzenacyclooctaphan-7-one] | > 10 µM | 455 nM | 22 nM | 560 nM | – | – |
| c1cc2cc(c1)-c1cccc3[nH]c(nc13)-c1n[nH]c3ccc(cc13)-c1cncc(c1)CNC2 [Compound 10, (Z)-2^1H,3^1H-6-Aza-2(5,3),3(2,4)-diindazola-1(3,5)-pyridina-4(1,3)-benzenacycloheptaphane] | 0.004 µM | 26 nM | 10 nM | 9980 nM | – | – |
| O=C1CCc2cccc(c2)-c2cccc3[nH]c(nc23)-c2n[nH]c3ccc(cc23)-c2cncc(c2)N1 [Compound 1] | 0.007 µM | 94 nM | 12 nM | 24 nM | – | – |
| CN1Cc2cncc(c2)-c2ccc3[nH]nc(c3c2)-c2nc3c(cccc3[nH]2)-c2cccc(c2)C1 [Compound 22, (Z)-6-Methyl-2^1H,3^1H-6-aza-2(5,3),3(2,4)-diindazola-1(3,5)-pyridina-4(1,3)-benzenacycloheptaphane] | 0.011 µM | 14 nM | 796 nM | 35 nM | – | – |
| O=C1COc2cccc(c2)-c2cncc3[nH]c(nc23)-c2n[nH]c3ccc(cc23)-c2cncc(c2)N1 [Compound 38, (Z)-2^3H,3^1H-8-Oxa-5-aza-2(7,2)-imidazo[4,5-c]pyridina-3(3,5)-indazola-4(3,5)-pyridina-1(1,3)-benzenacyclooctaphan-6-one] | 0.001 µM | 415 nM | 36 nM | 38 nM | – | – |
| O=C1NC2CCC(CC2)NCc2cncc(c2)-c2ccc3[nH]nc(c3c2)-c2nc3c1cccc3[nH]2 [Compound 64, (6^1s,6^4s,Z)-1^1H,2^1H-5,7-diaza-1 (2,4),2(3,5)-dibenzo[d]imidazola-3(3,5)-pyridina-6(1,4)-cyclohexanacyclooctaphan-8-one] | 0.088 µM | > 10000 nM | 147 nM | 10000 nM | 15.8% | 72% |

Now from value to compound, other results behind:

| IC50 [1] | EC50 [2] | EC50 [4] | SMILES | EC50 [3] | inhibition at 10 µM [2] | inhibition at 10 µM ([3]; read-out: percent inhibition at 10 μM) |
| --- | --- | --- | --- | --- | --- | --- |
| 1.87 µM | 670 nM | 25 nM | c1cc2cc(c1)-c1cccc3[nH]c(nc13)-c1n[nH]c3ccc(cc13)-c1cncc(c1)OCCC2 [Compound 57] | 637 nM | – | – |
| 0.004 µM | 142 nM | 16 nM | O=C1CCc2cccc(c2)-c2cccc3[nH]c(nc23)-c2n[nH]c3cnc(cc23)-c2cncc(c2)N1 [Compound 6, (Z)-2^1H,3^1H-8-Aza-2(5,3)-pyrazolo[3,4-c]pyridina-3(2,4)-benzo[d]imidazola-1(3,5)-pyridina-4(1,3)-benzenacyclooctaphan-7-one] | 29 nM | – | – |
| 0.015 µM | 170 nM | 69 nM | CN1Cc2cccc(c2)-c2cccc3[nH]c(nc23)-c2n[nH]c3ccc(cc23)-c2cnn(C)c2C1 [Compound 29] | 77 nM | – | – |
| 0.001 µM | > 10000 nM | 22 nM | CN1CCCn2cc(nn2)-c2cncc3[nH]c(nc23)-c2n[nH]c3ccc(cc23)-c2cncc(c2)C1 [Compound 45, (1^4Z,2^1Z)-6-Methyl-1 ^1H,2^3H,3^1H-6-aza-2(7,2)-imidazo[4,5-c]pyridina-3(3,5)-indazola-4(3,5)-pyridina-1(4,1)-triazolacyclononaphane] | 1540 nM | 44.1% | – |
| 0.002 µM | 515 nM | 93 nM | CN1CCCCN(C)c2nccc3[nH]c(nc23)-c2n[nH]c3ccc(cc23)-c2cncc(c2)C1 [Compound 51, (Z)-5,10-Dimethyl-1H,2^1H-5,10-diaza-1(2,4)-imidazo[4,5-c]pyridina-2(3,5)-indazola-3(3,5)-pyridinacyclodecaphane] | 203 nM | – | – |
| 0.048 µM | 407 nM | 213 nM | O=C1CCc2cccc(c2)-c2cccc3[nH]c(nc23)-c2n[nH]c3ncc(cc23)-c2cncc(c2)N1 [Compound 5, (Z)-2^1H,3^1H-8-Aza-2(5,3)-pyrazolo[3,4-b]pyridina-3(2,4)-benzo[d]imidazola-1(3,5)-pyridina-4(1,3)-benzenacyclooctaphan-7-one] | 78 nM | – | – |
| 0.001 µM | 80 nM | 58 nM | O=C1CCc2cccc(c2)-c2nccc3[nH]c(nc23)-c2n[nH]c3ccc(cc23)-c2cncc(c2)N1 [Compound 2, (Z)-2^1H,3^1H-5-Aza-2(4,2)-imidazo[4,5-c]pyridina-3 (3,5)-indazola-4(3,5)-pyridina-1(1,3)-benzenacyclooctaphan-6-one] | 224 nM | – | – |
| 0.001 µM | 49 nM | 206 nM | c1cc2cc(c1)-c1cncc3[nH]c(nc13)-c1n[nH]c3ccc(cc13)-c1cncc(c1)CNC2 [Compound 8, (Z)-2^3H,3H-6-Aza-2(7,2)-imidazo[4,5-c]pyridina-3(3,5)-indazola-4(3,5)-pyridina-1(1,3)-benzenacycloheptaphane] | 19 nM | – | – |
| 0.001 µM | 2760 nM | 28 nM | O=C1CCc2cccc(c2)-c2cncc3[nH]c(nc23)-c2n[nH]c3ccc(cc23)-c2cncc(c2)N1 [Compound 3, (Z)-2^3H,3^1H-5-Aza-2(7,2)-imidazo[4,5-c]pyridina-3 (3,5)-indazola-4(3,5)-pyridina-1(1,3)-benzenacyclooctaphan-6-one] | 42 nM | – | – |
| 0.01 µM | > 10000 nM | 69 nM | O=C1CCc2cccc(c2)-c2cncc(c2)NC(=O)c2n[nH]c3ccc(cc23)-c2cncc(c2)CN1 [Compound 97, 2^1H-4,10-diaza-2(5,3)-indazola-1,5(3,5)-dipyridina-6(1,3)-benzenacycloundecaphane-3,9-dione] | 406 nM | 25% | – |
